According to US20260083704A1, “LXR MODULATORS WITH BICYCLIC CORE MOIETY FOR TREATING DYSLIPIDEMIAS” (OrsoBio, Inc., priority 2022, published 2026):

Assays:
[1] = biological target: T1, GST-LXRβ ligand-binding domain (Homo sapiens, UniProt P55055); assay: TR-FRETβ activity assay (NCoA3 coactivator peptide recruitment); format: biochemical; details: 1 μM 24(S)-25-epoxycholesterol prestimulation
T1 construct: amino acids 156-461; NP009052; made in house; host or cells: E. coli
T1 sequence (P55055 156-460 limits assumed): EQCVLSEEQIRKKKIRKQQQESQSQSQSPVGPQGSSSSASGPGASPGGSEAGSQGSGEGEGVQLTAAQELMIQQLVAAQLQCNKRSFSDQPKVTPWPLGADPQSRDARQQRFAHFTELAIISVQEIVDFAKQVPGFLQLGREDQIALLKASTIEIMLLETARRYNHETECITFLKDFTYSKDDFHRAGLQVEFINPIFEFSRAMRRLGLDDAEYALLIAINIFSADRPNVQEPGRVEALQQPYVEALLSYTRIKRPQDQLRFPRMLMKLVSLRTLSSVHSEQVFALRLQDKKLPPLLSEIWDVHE
Summary of the method: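 Inverse-agonist format, with LXR prestimulated by 1 μM 24(S)-25-epoxycholesterol in pH 6.8 Tris/HCl, 240 mM KCl, BSA and Triton. Ten concentrations from 50 μM to 0.002 μM were equilibrated 1 h at 4° C with 76 nM GST-LXRβ LBD and 400 nM biotin-NCoA3 peptide. Peptide recruitment detected by 665/615 nm TR-FRET.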

[2] = biological target: T2, LXRβ (Homo sapiens, UniProt P55055); assay: LXR Gal4 reporter transient transfection assay (mammalian two-hybrid, HEK293), LXRβ; format: cell-based; parameters: LXRβ (amino acids 156-461); expressed in transfected cells; host or cells: HEK293; details: full length (FL) LXRβ, HEK293; read-out: FL-M2H Gal4β
T2 sequence (P55055 1-460): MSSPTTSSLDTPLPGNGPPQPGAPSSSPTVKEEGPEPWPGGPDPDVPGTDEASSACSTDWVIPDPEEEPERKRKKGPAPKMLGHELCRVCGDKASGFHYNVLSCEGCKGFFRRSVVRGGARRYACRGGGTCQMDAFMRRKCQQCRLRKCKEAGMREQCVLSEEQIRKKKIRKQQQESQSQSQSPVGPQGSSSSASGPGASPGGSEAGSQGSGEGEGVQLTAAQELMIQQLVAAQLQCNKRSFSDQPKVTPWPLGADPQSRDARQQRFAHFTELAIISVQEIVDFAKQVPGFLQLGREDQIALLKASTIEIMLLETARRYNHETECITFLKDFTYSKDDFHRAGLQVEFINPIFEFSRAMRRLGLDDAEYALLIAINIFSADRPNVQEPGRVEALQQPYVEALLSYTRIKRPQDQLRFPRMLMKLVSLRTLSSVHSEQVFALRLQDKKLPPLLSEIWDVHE
Summary of the method: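 Mammalian two-hybrid read-out of LXR–coactivator (SRC1) or corepressor (NCoR) interaction: firefly luciferase under GAL4 response elements, normalised via Renilla co-transfection. LXRα/β full-length or LBD fusions expressed transiently in HEK293; compounds (final DMSO ≤0.2%) given 4 h after transfection for 16 h before lysis.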

Compound	EC50 [1] [nM]	EC50 [2] [nM]
Cc1ccc(S(=O)(=O)n2c(-c3cccc(-c4ccc(C(=O)O)cc4Cl)c3)c(-c3c(C)cccc3C#N)c3cc(F)ccc32)cc1 [11/6]	< 100	< 100
N#Cc1sccc1-c1c(-c2cccc(-c3cc(F)c(C(=O)O)cc3Cl)c2)n(S(=O)(=O)c2ccc(CF)cc2)c2ccc(F)cc12 [11/7]	< 100	< 100
N#Cc1sccc1-c1c(-c2cccc(-c3cc(F)c(C(=O)O)cc3Cl)c2)n(S(=O)(=O)c2ccc(C(F)F)cc2)c2ccc(F)cc12 [11/8]	< 100	< 100
N#Cc1scnc1-c1c(-c2cccc(-c3cc(F)c(C(=O)O)cc3Cl)c2)n(S(=O)(=O)c2ccc(C(F)F)cc2)c2ccc(F)cc12 [11/9]	< 100	< 100
N#Cc1ccncc1-c1c(-c2cccc(-c3cc(F)c(C(=O)O)cc3Cl)c2)n(S(=O)(=O)c2ccc(C(F)F)cc2)c2ccc(F)cc12 [11/10]	< 100	< 100
Cc1cccc(C)c1-c1c(-c2cccc(-c3ccc(C(=O)O)cc3Cl)c2)n(S(=O)(=O)c2ccc(C(F)F)cc2)c2ccc(F)cc12 [11/14]	< 100	< 100
O=C(O)c1ccc(-c2cccc(-c3c(-c4c(C(F)F)cccc4C(F)F)c4cc(F)ccc4n3S(=O)(=O)c3ccc(C(F)F)cc3)c2)c(Cl)c1 [11/15]	< 100	< 100
N#Cc1sccc1-c1c(-c2cccc(-c3ccc(C(=O)O)cc3Cl)c2)n(S(=O)(=O)c2ccc(F)cc2)c2ccc(F)cc12 [11/18]	100 to 1000	< 100
Cc1ccc(S(=O)(=O)n2c(-c3cccc(-c4ccc(C(=O)O)cc4Cl)c3)c(-c3ccsc3C#N)c3cc(F)ccc32)cc1F [11/19]	100 to 1000	< 100
N#Cc1ccc(S(=O)(=O)n2c(-c3cccc(-c4ccc(C(=O)O)cc4Cl)c3)c(-c3ccsc3C#N)c3cc(F)ccc32)cc1 [11/20]	100 to 1000	< 100
O=C(O)c1ccc(-c2cccc(-c3c(-c4ccsc4C(F)F)c4cc(F)ccc4n3S(=O)(=O)c3ccc(Cl)cc3)c2)c(Cl)c1 [11/21]	< 100	< 100
O=C(O)c1ccc(-c2cccc(-c3c(-c4ccsc4C(F)(F)F)c4cc(F)ccc4n3S(=O)(=O)c3ccc(C(F)F)cc3)c2)c(Cl)c1 [11/22]	< 100	< 100
Cc1n[nH]c(C)c1-c1c(-c2cccc(-c3ccc(C(=O)O)cc3Cl)c2)n(S(=O)(=O)c2ccc(C(F)F)cc2)c2ccc(F)cc12 [11/24]	100 to 1000	100 to 1000
O=C(O)c1ccc(-c2cccc(-c3c(-c4cn[nH]c4C(F)(F)F)c4cc(F)ccc4n3S(=O)(=O)c3ccc(C(F)F)cc3)c2)c(Cl)c1 [11/25]	100 to 1000	< 100
N#Cc1ccccc1-c1c(-c2cccc(-c3ccc(C(=O)O)c4c3OCO4)c2)n(S(=O)(=O)c2ccc(C(F)F)cc2)c2ccc(F)cc12 [11/28]	< 100	< 100
COc1cc(C(=O)O)ccc1-c1cccc(-c2c(-c3ccccc3C#N)c3cc(F)ccc3n2S(=O)(=O)c2ccc(C(F)F)cc2)c1 [11/29]	< 100	< 100
N#Cc1cc(C(=O)O)ccc1-c1cccc(-c2c(-c3ccccc3C#N)c3cc(F)ccc3n2S(=O)(=O)c2ccc(C(F)F)cc2)c1 [11/30]	< 100	< 100
N#Cc1ccccc1-c1c(-c2cccc(-c3ccc(C(=O)O)cc3F)c2)n(S(=O)(=O)c2ccc(C(F)F)cc2)c2ccc(F)cc12 [11/31]	< 100	< 100
N#Cc1ccccc1-c1c(-c2cccc(-c3ccc(C(=O)O)c(O)c3Cl)c2)n(S(=O)(=O)c2ccc(C(F)F)cc2)c2ccc(F)cc12 [11/32]	< 100	< 100
N#Cc1cccc(F)c1-c1c(-c2cccc(-c3ccc(C(=O)O)cc3Cl)c2)n(S(=O)(=O)c2ccc(C(F)F)cc2)c2ccc(F)cc12 [11/34]	< 100	< 100
Cc1cccc(C(F)F)c1-c1c(-c2cccc(-c3ccc(C(=O)O)cc3Cl)c2)n(S(=O)(=O)c2ccc(C(F)F)cc2)c2ccc(F)cc12 [11/38]	< 100	< 100
